Test: xn = mol fraction of the nth substance listed

N#C[C-](C#N)C#N.OCC[n+]1ccccc1 + c1ccsc1
Settings	viscosity [mPa·s]
313.15 K, 101 kPa, x1 = 0.4042	9.96

CCCCCCCCCCC + CCCCO
viscosity [mPa·s], 100 kPa
Settings	x1 = 0.1003	x1 = 0.1998	x1 = 0.3006	x1 = 0.4	x1 = 0.5006	x1 = 0.6013	x1 = 0.6989	x1 = 0.8018	x1 = 0.8991
293.15 K	2.391	–	1.749	1.549	1.398	–	1.223	–	–
298.15 K	2.107	–	–	1.391	1.264	1.177	1.119	–	–
303.15 K	–	–	1.399	1.257	1.15	1.076	1.028	0.997	0.974
308.15 K	–	–	1.261	1.141	1.05	0.99	0.949	0.923	–
313.15 K	–	1.288	1.141	1.04	0.964	0.913	0.879	0.857	0.838
318.15 K	–	1.163	1.037	0.952	0.888	0.845	0.817	0.798	0.781
323.15 K	1.199	1.054	0.947	0.874	0.82	0.785	0.761	0.746	0.73

OCCCl + CO
viscosity [mPa·s], 101.33 kPa
Settings	x1 = 0.096	x1 = 0.2122	x1 = 0.2939	x1 = 0.3927	x1 = 0.4944	x1 = 0.598	x1 = 0.6969	x1 = 0.7977	x1 = 0.8997
298.15 K	0.615	0.777	0.91	1.099	1.321	1.591	1.869	2.13	2.45
303.15 K	0.572	0.721	0.834	1.003	1.195	1.434	1.632	1.884	2.14
308.15 K	0.529	0.662	0.767	0.913	1.084	1.287	1.456	1.675	1.89

CCOC(=O)CCC(=O)OCC + CCCCCCO
293.15 K, 100 kPa
Settings	viscosity [mPa·s]
x1 = 0.4999	2.495
x1 = 0.7999	2.495

Source: the CheMixHub viscosity set
